The source of these data is ChEMBL document CHEMBL3044856, “Molecular docking of glycogen synthase kinase3- inhibitor oleanolic acid and its wound-healing activity in rats” (Med Chem Res, 2013).

Activity calls are given as the source filed them. The calls are words filed in the database; no cut-off is given here.

Data set [1] relates to Mus musculus. Description: Wound-healing activity in Swiss albino Mus musculus (mouse) dead space wound model assessed as increase in hydroxyproline content measured per 100 g of tissue at 3 mg/ml, ip measured on day 10 (reference value: 1411.15 +/- 6.26 ug). The class given is functional.
For data set [2], the system named is Mus musculus. Description: Wound-healing activity in Swiss albino Mus musculus (mouse) excision wound model assessed as closure of excision wound area at 3 mg/ml, ip measured on day 8 (reference value: 54.64 +/- 1.17%). The data set is classed as functional.
Data set [3] has as its system Mus musculus. Description: Wound-healing activity in Swiss albino Mus musculus (mouse) dead space wound model assessed as increase in dry weight of granuloma tissue at 3 mg/ml, ip measured on day 10 (reference value: 11.52 +/- 0.9 mg). The data set is classed as functional.
Data set [4] relates to Mus musculus. Description: Wound-healing activity in Swiss albino Mus musculus (mouse) excision wound model assessed as closure of excision wound area at 3 mg/ml, ip measured on day 12 (reference value: 66.04 +/- 0.94%). The class given is functional.
Data set [5] concerns Mus musculus. Description: Wound-healing activity in Swiss albino Mus musculus (mouse) excision wound model assessed as closure of excision wound area at 3 mg/ml, ip measured on day 4 (reference value: 25.32 +/- 3.31%). The class given is functional.
The test system of data set [6] is Mus musculus. Description: Wound-healing activity in Swiss albino Mus musculus (mouse) excision wound model assessed as closure of excision wound area at 3 mg/ml, ip measured on day 16 (reference value: 81.36 +/- 0.83%). The data set is classed as functional.
In data set [7] the test system is Mus musculus. Description: Wound-healing activity in Swiss albino Mus musculus (mouse) dead space wound model assessed as increase in wet weight of granuloma tissue at 3 mg/ml, ip measured on day 10 (reference value: 79.56 +/- 1.05 mg). The class given is functional.
Data set [8] deals with Mus musculus. Description: Acute toxicity in Swiss albino Mus musculus (mouse) assessed as abnormal behavior up to 120 mg/kg, ip. The data set is classed as organism-based. Also noted: dose 120 mg/kg, route intraperitoneal. The settings on record: in vivo.
Data set [9] relates to Mus musculus. Description: Wound-healing activity in Swiss albino Mus musculus (mouse) assessed as decrease in macrophage accumulation in granulation tissue at 3 mg/ml, ip measured on day 10 by hematoxylin and eosin staining-based histological analysis relative to untreated control. The class given is functional, organism-based.
The test system of data set [10] is Mus musculus. Description: Wound-healing activity in Swiss albino Mus musculus (mouse) dead space wound model assessed as increase in tissue breaking strength at 3 mg/ml, ip measured on day 10 (reference value: 366.32 +/- 14.40 g). The class given is functional.
The subject of data set [11] is Mus musculus. Description: Acute toxicity in Swiss albino Mus musculus (mouse) assessed as mortality up to 120 mg/kg, ip. The note with it: in vivo. The class given is organism-based. The arrangement: dose 120 mg/kg, route intraperitoneal.
In data set [12] the test system is Mus musculus. Description: Wound-healing activity in Swiss albino Mus musculus (mouse) incision wound model assessed as increase in tensil strength of incision wound at 12 mg/kg/day, ip measured on day 10 (reference value: 356.13 +/- 14.55 g). The class given is functional. The note with it: route intraperitoneal.
Data set [13] relates to Mus musculus. Description: Wound-healing activity in Swiss albino Mus musculus (mouse) excision wound model assessed as time required for complete epithelialization of excision wound at 3 mg/ml, ip (reference value: 22.75 +/- 0.13 days). The class given is functional.
The subject of data set [14] is Mus musculus. Description: Wound-healing activity in Swiss albino Mus musculus (mouse) assessed as increase in collagenation in granulation tissue at 3 mg/ml, ip measured on day 10 by hematoxylin and eosin staining-based histological analysis relative to untreated control. The class given is functional, organism-based.
Data set [15] has as its system Mus musculus. Description: Wound-healing activity in ip dosed Swiss albino Mus musculus (mouse) excision wound model assessed as closure of excision wound area measured on day 16 (reference value: 81.36 +/- 0.83%). The class given is functional.
Data set [16] has as its system Mus musculus. Description: Wound-healing activity in ip dosed Swiss albino Mus musculus (mouse) dead space wound model assessed as increase in dry weight of granuloma tissue measured on day 10 (reference value: 11.52 +/- 0.9 mg). The class given is functional.
In data set [17] the test system is Mus musculus. Description: Wound-healing activity in ip dosed Swiss albino Mus musculus (mouse) incision wound model assessed as increase in tensil strength of incision wound measured on day 10 (reference value: 356.13 +/- 14.55 g). The data set is classed as functional.
Data set [18] has as its system Mus musculus. Description: Wound-healing activity in ip dosed Swiss albino Mus musculus (mouse) excision wound model assessed as closure of excision wound area measured on day 12 (reference value: 66.04 +/- 0.94%). The data set is classed as functional.
Data set [19] concerns Mus musculus. Description: Wound-healing activity in ip dosed Swiss albino Mus musculus (mouse) dead space wound model assessed as increase in tissue breaking strength measured on day 10 (reference value: 366.32 +/- 14.40 g). The data set is classed as functional.
Data set [20] relates to Mus musculus. Description: Wound-healing activity in ip dosed Swiss albino Mus musculus (mouse) excision wound model assessed as closure of excision wound area measured on day 4 (reference value: 25.32 +/- 3.31%). The class given is functional.
In data set [21] the test system is Mus musculus. Description: Wound-healing activity in ip dosed Swiss albino Mus musculus (mouse) dead space wound model assessed as increase in hydroxyproline content measured per 100 g of tissue measured on day 10 (reference value: 1411.15 +/- 6.26 ug). The data set is classed as functional.
The subject of data set [22] is Mus musculus. Description: Wound-healing activity in ip dosed Swiss albino Mus musculus (mouse) excision wound model assessed as time required for complete epithelialization of excision wound (reference value: 22.75 +/- 0.13 days). The data set is classed as functional.
The test system of data set [23] is Mus musculus. Description: Wound-healing activity in ip dosed Swiss albino Mus musculus (mouse) assessed as decrease in macrophage accumulation in granulation tissue measured on day 10 by hematoxylin and eosin staining-based histological analysis relative to untreated control. The data set is classed as functional, organism-based.
In data set [24] the test system is Mus musculus. Description: Wound-healing activity in ip dosed Swiss albino Mus musculus (mouse) assessed as increase in collagenation in granulation tissue measured on day 10 by hematoxylin and eosin staining-based histological analysis relative to untreated control. The class given is functional, organism-based.
Data set [25] concerns Mus musculus. Description: Wound-healing activity in ip dosed Swiss albino Mus musculus (mouse) excision wound model assessed as closure of excision wound area measured on day 8 (reference value: 54.64 +/- 1.17%). The class given is functional.
Data set [26] deals with Mus musculus. Description: Wound-healing activity in ip dosed Swiss albino Mus musculus (mouse) dead space wound model assessed as increase in wet weight of granuloma tissue measured on day 10 (reference value: 79.56 +/- 1.05 mg). The class given is functional.

Take `CC1(C)CC[C@]2(C(=O)O)CC[C@]3(C)C(=CC[C@@H]4[C@@]5(C)CC[C@H](O)C(C)(C)[C@@H]5CC[C@]43C)[C@@H]2C1` [OLEANOLIC_ACID]: the Activity with Mus musculus [1] turned out to be 2124.91 µg; in the data set with Mus musculus [2], 79.11%; in the data set with Mus musculus [3] it was 26.25 mg; with Mus musculus [4] it was 86.06%; in the data set on Mus musculus [5], 36.13%; in the data set on Mus musculus [6], 96.82%. The Activity with Mus musculus [7] is reported as 127.12 mg; in the data set with Mus musculus [8], “Non-toxic”; in the data set with Mus musculus [10], 599.08 g; in the data set with Mus musculus [11], “Non-toxic”; in the data set with Mus musculus [12], 580.83 g. The result with Mus musculus [9] and in the data set on Mus musculus [14] was Active. In addition, the Time with Mus musculus [13] was found to be 18.48 days.
Turning to `Nc1ccc(S(=O)(=O)Nc2nccs2)cc1` [SULFATHIAZOLE], the Activity in the data set on Mus musculus [15] came to 96.94%; in the data set with Mus musculus [16], 28.42 mg; in the data set with Mus musculus [17] it was 582.04 g; in the data set with Mus musculus [18], 84.46%; in the data set on Mus musculus [19], 617.39 g; in the data set with Mus musculus [20] it was 39.94%. The Activity in the data set on Mus musculus [21] is 2427.33 µg; in the data set with Mus musculus [25], 74.54%; in the data set on Mus musculus [26], 131.4 mg. Also, the Time in the data set on Mus musculus [22] worked out at 18.36 days. Further, the result in the data set with Mus musculus [23] and in the data set with Mus musculus [24] was Active.
